“Also recorded” adds a separate entry of the source.
Assays:
[1] = system: incisional spontaneous pain (guarding); assay: Surgical incision (Brennan) pain behavior rodent model; format: in vivo, rat
Description: The compound of Formula (Ia) is also active in rodent models of pain in vivo induced by incision of the plantar surface of the hind paw (i.e., the “Brennan Surgical Model”), as described in Example 7. […] Thirty (30) mg/kg of the compound of Formula (Ia) delivered intraperitoneally (2 doses of 15 mg/kg before and immediately after the surgery) reduces spontaneous pain for up to 2 hours after surgery (FIG. 4). The compound of Formula (Ia), the comparator compound of Formula (III) and ketoprofen were tested by the incisional pain test method reported in Brennan et al., Pain, 1996 March; 64(3):493-501 incorporated herein by reference in its entirety. Briefly, in rats under anesthesia, a 1 cm incision through skin and underlying muscle was made in the bottom of one hind paw. The incision was sutured closed and the animals allowed to regain consciousness in their home cage before being placed on a special mesh rack. The blinded observer subjectively assessed and recorded each animal's pain score every 5 minutes for 1 hour. Pain scores were assigned as follows: Score of 0=Injured paw was held flat on the rack and was bearing weight (=uninjured paw); 1=Injured paw was slightly lifted from the rack but was bearing some weight; 2=Injured paw was flat but was bearing no weight, or heel was lifted high off the rack with only toes touching. At the end of each hour, pain scores were added up and the final score recorded ([…]). In a typical study the efficacy of the drug treatment was determined by comparing the cumulative guarding scores at 1-2 and 3-4 hours following surgical injury to the cumulative guarding scores of animals that received the vehicle.

[2] = system: airway hyper-responsiveness to Carbachol; assay: Sheep allergic asthma model, airway hyper-responsiveness (PC400) to Carbachol; format: in vivo; settings: 24 hour post-challenge Carbachol
Description: Compounds were tested in the sheep model of experimental asthma reported in Abraham W M, Asthma & Rhinitis, 2000: 1205-1227 incorporated herein by reference in its entirety.
The unsedated sheep were restrained in a cart in the prone position with their heads immobilized. After topical anesthesia of the nasal passages with 2% lidocaine solution, a balloon catheter was advanced through one nostril into the lower esophagus. The sheep were intubated with a cuffed endotracheal tube through the other nostril. Pleural pressure was estimated with the esophageal balloon catheter. Lateral pressure in the trachea was measured with a sidehole catheter (inner dimension, 2.5 mm) advanced through and positioned distal to the tip of the endotracheal tube. Transpulmonary pressure, the difference between tracheal and pleural pressure, was measured with a differential pressure transducer catheter system. For the measurement of pulmonary resistance (RL), the proximal end of the endotracheal tube was connected to a pneumotachograph. […]
Baseline concentration response curves to aerosol Carbachol were obtained 1 to 3 days before commencement of drug/vehicle treatment. […] Baseline values of pulmonary resistance (RL) were obtained within 30 minutes of treatment and then re-measured 30 minutes before antigen challenge. […]

[3] = system: serum biomarkers of hepatotoxicity (ALT, AST, ALP, GGT); assay: Hepatotoxicity serum biomarker study in dogs, oral dose; format: in vivo, dog; settings: dogs; 50 mg/kg PO
Description: The compound of Formula (Ia) was orally dosed to […] at dose levels of 5, 15 or 50 mg/kg using 30% Sulfobutylether β-cyclodextrin as the vehicle for assessment of safety as measured via serum chemistry biomarkers of hepatotoxicity or bile duct injury FIG. 5A, showing measurements of alanine aminotranferease [ALT], aspartate aminotranferease [AST], alkaline phosphatase [ALP] and gamma-glutamyl transferase [GGT] in the dogs at each dose level (each bar represents a measurement from 1 dog in the study). […] For example, the ALT levels were elevated up to about 60-fold in male dogs and up to about 130-fold in female beagle dogs following a single PO dose of 50 mg/kg.

SMILES: C[C@H]1CCCN1c1ncc(-c2cccc(NC(=O)Cn3cnc4c3c(=O)n(C)c(=O)n4C)n2)cn1 [Formula (Ia)]
- time after surgery for which spontaneous pain is reduced ([1]; 30 mg/kg intraperitoneally (2 doses of 15 mg/kg before and immediately after the surgery)): up to 2 hours
- reduction of spontaneous pain compared with ketoprofen ([1]; 60 mg/kg i.p. versus ketoprofen 2 doses of 2 mg/kg intraperitoneally): equivalent to ketoprofen; also recorded: better than ketoprofen
- time after surgery for which spontaneous pain is reduced ([1]; 60 mg/kg intraperitoneally (2 doses of 30 mg/kg before and immediately after the surgery)): up to 4 hours
- airway hyper-responsiveness (PC400), relative to baseline ([2]; 5 mg/kg PO): 100%
- airway hyper-responsiveness (PC400), relative to baseline ([2]; 10 mg/kg PO): 100%
- effect on serum biomarkers of hepatotoxicity [3]: did not elevate serum biomarkers of hepatotoxicity or acute phase response
